Marks after values point to notes of the source that are not given here.
Columns and labels:
OA mouse model (DMM) [1] = test: Biomarker and Mankin scoring of knees (Example 2); assay type: in vivo; details: 500 μM (DMSO) vs 10 μM (cream) wogonin
Procedure: (§1) A second experiment using small doses of wogonin applied topically either in DMSO or in a cream with penetration enhancers was conducted. In this study, OA was induced by DMM surgery. Twenty four hours after surgery treatment was applied to the affected knee. The treatments included 0.00000142 g wogonin in 10 μl DMSO (500 μM wogonin) applied to the skin at the location of patellar tendon (n=5); 10 μl DMSO applied to the skin at the location of patellar tendon (n=5); 0.0000000028 g wogonin (10 μl G2 Cream E/10 μM wogonin) to the skin at the location of the patellar tendon (n=5). Treatment was applied every third day for 28 days. Immediately after surgery, mice were placed in an activity wheel cage in which wheel use was recorded on a computer. […] At day 28 this pattern was repeated.
Again, below 1 μM and there would be insufficient wogonin to have an effect. Above 500 μM and there would be too much suppression of inflammation and ceramides. TGF-β1 is inhibited and chondrocytes can't return to homeostasis, […].

OA mouse model (DMM) [2] = test: Modified Mankin score / histological evaluation of knee joint after DMM surgery (Example 1); assay type: in vivo
Procedure: (§2) An OA mouse model was used to determine the efficacy of wogonin treatment. OA-like disease was induced by surgical destabilization of the medial meniscal ligament (DMM) of laboratory mice. Repair of the knee was assessed using the Modified Mankin Score which is widely accepted as the way to objectively compare OA progression by histological evaluation of a knee joint (See Larkin D J et al., Frontiers in physiology. 2013; 4:121 and Mankin H J. The New England journal of medicine. 1974; 291(24):1285-92). The mice were housed in activity wheel cages linked to a computer for activity tracking throughout the duration of the experiment. Twenty-four hours after surgical intervention the following treatments were applied topically to the affected knee: 0.00000142 g wogonin (500 μM wogonin) (n=6); 0.0000000028 g wogonin (10 μM wogonin) (n=6); and 10 μl vehicle (n=6). Treatment was applied every third day for 28 days.
(§3) While the wheel use data were encouraging, inhibiting inflammation alone and blocking pain, is insufficient to block the progression of OA. At the conclusion of the experiment (day 28) mice were sacrificed, knees collected, fixed and studied for Modified Mankin score and HtrA1 expression as previously reported in Spencer K MS and Jeffrey Z Kartchner W. Journal of Arthritis. 2015; 04(03). HtrA1 is the first in the biomarker cascade that is associated with OA progression.
(§4) Mouse knee OA was induced by surgical destabilization of the medial meniscal ligament (DMM surgery) and mice were treated with 10 μM of wogonin. Controls were DMM plus vehicle. […] Note the fissure and rough articular cartilage surface (see arrows) in the control knee.

OA mouse model (DMM) [3] = test: Activity wheel use after DMM surgery, wogonin in DMSO or in cream (Example 2); assay type: in vivo
Procedure: as §1

HtrA1 = HtrA1 immunohistochemical staining in knee joints after DMM surgery (Example 1); assay type: in vivo, mouse; details: knees treated with 10 μM wogonin, day 28
Text: as §3, §4

[4] = test system: BBS 3 gene expression in human chondrocytes (TC28a2); test: qRTPCR of BBS 3 gene expression in human chondrocytes; assay type: cell-based
Procedure: Human chondrocytes (TC28a2 Sigma-Aldrich, St. Louis, MO, USA) were cultured in EmbryoMax® DMEM (SLM-120 B Millipore, St. Louis, MO, USA) supplemented with 10% Fetal Calf Serum (F-2442-50 ML Sigma-Aldrich, St. Louis, MO, USA) to 80% confluence. Treatments consisted of: • 1. Untreated plate: Remove old media and replace with 10 mL fresh media. Incubate 4 hours. Remove media, rinse 3× with PBS and collect total RNA according to manufacturer's protocol ([…] ZYMO Research, Irvine, CA, USA). • 2. Treat with 10 μM wogonin (dissolved in DMSO). Remove old media and replace with 10 mL conditioned media containing wogonin. Incubate 4 hours. Remove media, rinse 3× with PBS and collect total RNA according to manufacturer's protocol ([…] ZYMO Research, Irvine, CA, USA). • 3. Treat with 1 ng/mL IL-1β (dissolved in dds water). Remove old media and replace with 10 mL conditioned media containing IL-1β. Incubate 4 hours. Remove media, rinse 3× with PBS and collect total RNA according to manufacturer's protocol ([…] ZYMO Research, Irvine, CA, USA). • 4. Treat with 10 μM wogonin; wait 1 hour and add 1 ng/mL IL-1β, incubate 4 hours. Remove old media and replace with 10 mL conditioned media containing wogonin. Incubate 1 hour. Add 10 μL 1 ng/mL IL-1β. Pipet media up and down in cell culture dish 3× gently to mix. Incubate 4 hours. Remove media, rinse 3× with PBS and collect total RNA according to manufacturer's protocol ([…] ZYMO Research, Irvine, CA, USA). cDNA was made from total RNA according to manufacturer's protocol (1725038 BIO-RAD, Hercules, CA, USA). Quantitative Real-time Polymerase Chain Reaction (qRTPCR) was performed using the Life Technologies One Step Plus Sequence Detection System and Software (Life Technologies). SYBR-green-based PrimeTime assays (IDT) were used to detect human TGF-β1 and BBS 3.

mouse formalin test = details: intraperitoneal injection, 200 mg/kg; cited from earlier work
[5] = test system: OA mouse model (surgical destabilization of the medial meniscal ligament, DMM); test: Activity wheel use after DMM surgery, topical wogonin cream (Example 1); assay type: in vivo
Procedure: The use of wogonin for the treatment of osteoarthritic (OA) pain was investigated. Specifically, the benefit of using small doses of wogonin applied topically in a cream with penetration enhancers was investigated. The cream formulation shown in Table 2 was used in this study.
as §2
At day 28 this pattern was repeated.

[6] = test system: TGF-β1 gene expression in human chondrocytes (TC28a2); test: qRTPCR of TGF-β1 gene expression in human chondrocytes; assay type: cell-based
Procedure: Human chondrocytes (TC28a2 Sigma-Aldrich, St. Louis, MO, USA) were cultured in EmbryoMax® DMEM (SLM-120 B Millipore, St. Louis, MO, USA) supplemented with 10% Fetal Calf Serum (F-2442-50 ML Sigma-Aldrich, St. Louis, MO, USA) to 80% confluence. Treatments consisted of: • 1. Untreated plate: Remove old media and replace with 10 mL fresh media. Incubate 4 hours. Remove media, rinse 3× with PBS and collect total RNA according to manufacturer's protocol ([…] ZYMO Research, Irvine, CA, USA). • 2. Treat with 10 μM wogonin (dissolved in DMSO). Remove old media and replace with 10 mL conditioned media containing wogonin. Incubate 4 hours. Remove media, rinse 3× with PBS and collect total RNA according to manufacturer's protocol ([…] ZYMO Research, Irvine, CA, USA). • 3. Treat with 1 ng/mL IL-1β (dissolved in dds water). Remove old media and replace with 10 mL conditioned media containing IL-1β. Incubate 4 hours. Remove media, rinse 3× with PBS and collect total RNA according to manufacturer's protocol ([…] ZYMO Research, Irvine, CA, USA). • 4. Treat with 10 μM wogonin; wait 1 hour and add 1 ng/mL IL-1β, incubate 4 hours. Remove old media and replace with 10 mL conditioned media containing wogonin. Incubate 1 hour. […] Quantitative Real-time Polymerase Chain Reaction (qRTPCR) was performed using the Life Technologies One Step Plus Sequence Detection System and Software (Life Technologies). […]

MMP-3 = details: intra-articular injection, inflammation initiated by IL-1β; cited from earlier work

COc1c(O)cc(O)c2c(=O)cc(-c3ccccc3)oc12 [Wogonin, 5,7-dihydroxy-8-methoxyflavone]
Biomarker and Mankin scoring of knees (OA mouse model (DMM) [1]): higher dose of wogonin is beneficial initially but the lower dose remained beneficial throughout the experiment | OA as measured by Modified Mankin score (OA mouse model (DMM) [2]; 1 μM wogonin applied topically): sufficient to significantly reduce OA | Benefit in reducing the progression of OA (OA mouse model (DMM) [2]; 10 μM compared to 500 μM wogonin): greater benefit | Modified Mankin score of OA (OA mouse model (DMM) [2]; 10 μM wogonin topical vs DMM plus vehicle, day 28): statistically (p>0.05) lower | Effect on inflammation and biomarkers (OA mouse model (DMM) [2]; dosages above 500 μM wogonin): too much suppression of inflammation and biomarkers | Effect on OA (OA mouse model (DMM) [2]; dosages below 1 μM wogonin): insufficient to have an effect | Articular cartilage surface (histology) (OA mouse model (DMM) [2]; knees treated with 10 μM wogonin, day 28): essentially normal | Average (activity wheel use) (OA mouse model (DMM) [3]; 500 μM wogonin in 10 μl DMSO topical, Day 7, listed as Wogonin + DMSO): 12608* | Average (activity wheel use) (OA mouse model (DMM) [3]; 500 μM wogonin in 10 μl DMSO topical, Day 7, listed as wogonin in DMSO): significantly higher wheel use than DMSO only | Average (activity wheel use) (OA mouse model (DMM) [3]; 500 μM wogonin in DMSO topical, Day 14, listed as DMSO+wogonin): no difference | Average (activity wheel use) (OA mouse model (DMM) [3]; 500 μM wogonin in DMSO topical, Day 14, listed as Wogonin + DMSO): 15191 | Average (activity wheel use) (OA mouse model (DMM) [3]; 500 μM wogonin in DMSO topical, Day 28): 15492 | Expression of HtrA1 (immunohistochemical staining) (HtrA1): essentially absent | Lowering of the wogonin response (BBS 3 gene expression) by IL-1β ([4]; 10 μM wogonin pre-treatment, then 1 ng/mL IL-1β): almost half | Increase in gene expression of BBS 3 ([4]; 10 μM wogonin, 4 hours): 125% | Increase in BBS 3 expression ([4]; wogonin, human chondrocytes): 1.25 fold | Pain symptoms in mouse formalin test (mouse formalin test): improvement of pain symptoms | Average Wheel Use ([5]; 10 μM wogonin cream topical, Day 7): 12443** | Average Wheel Use ([5]; 10 μM wogonin cream topical, Day 7, listed as wogonin): significantly higher wheel use than control or vehicle alone | Average Wheel Use ([5]; 10 μM wogonin cream topical, Day 14): 22000*** | Average Wheel Use ([5]; 10 μM wogonin cream topical, Day 14, listed as wogonin): higher activity wheel use than those receiving 500 μM | Average Wheel Use ([5]; 10 μM wogonin cream topical, Day 28): 19358** | Average Wheel Use ([5]; 500 μM wogonin cream topical to knee every third day, Day 7): 12608** | Average Wheel Use ([5]; 500 μM wogonin cream topical to knee every third day, Day 7, listed as wogonin): significantly higher wheel use than control or vehicle alone | Average Wheel Use ([5]; 500 μM wogonin cream topical, Day 14): 17910** | Average Wheel Use ([5]; 500 μM wogonin cream topical, Day 28): 16528* | Drop in gene expression of TGF-β1 ([6]; 10 μM wogonin pre-treatment 1 hour, then 1 ng/mL IL-1β 4 hours): < 40% | MMP-3 expression in articular cartilage (MMP-3): decreased MMP-3 expression

IL-1β: pro-inflammatory cytokine used at 1 ng/mL to treat human chondrocytes [reference compound]
Effect on BBS 3 gene expression ([4]; 1 ng/mL IL-1β alone, 4 hours): no effect | Drop in gene expression of TGF-β1 ([6]; 1 ng/mL IL-1β, 4 hours, vs untreated): 80%
